Holding throughout (assay): relative viability (nuclei count vs DMSO), 5 days (fraction); higher = more cells survive
Compound in the assay “BX 795 + OSI-027”: O=C(NCCCNc1nc(Nc2cccc(NC(=O)N3CCCC3)c2)ncc1I)c1cccs1 [BX 795] + COc1cccc2cc(-c3nc([C@H]4CC[C@H](C(=O)O)CC4)n4ncnc(N)c34)[nH]c12 [OSI-027] (partner 0.5 µM)
In outline:
(§1)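 Relative viability equals treated-well nuclei counts divided by vehicle-well nuclei counts. Counts came from 4× images of lung cancer cell lines grown in 1536-well plates for 5 days after pin-tool dosing on the day after seeding. Dosing used one drug alone or a fixed anchor-drug dose plus five library-drug doses (not always all listed) in √10 steps, and values are medians of duplicate plates.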

Compound in the assay “BX 795 + Lapatinib”: O=C(NCCCNc1nc(Nc2cccc(NC(=O)N3CCCC3)c2)ncc1I)c1cccs1 [BX 795] + CS(=O)(=O)CCNCc1ccc(-c2ccc3ncnc(Nc4ccc(OCc5cccc(F)c5)c(Cl)c4)c3c2)o1 [Lapatinib] (partner 2 µM)
In outline:
as §1

Compound in the assay “BX 795 + Luminespib”: O=C(NCCCNc1nc(Nc2cccc(NC(=O)N3CCCC3)c2)ncc1I)c1cccs1 [BX 795] + CCNC(=O)c1noc(-c2cc(C(C)C)c(O)cc2O)c1-c1ccc(CN2CCOCC2)cc1 [Luminespib] (partner 0.01 µM)
In outline:
as §1

Compound in the assay “BX 795 + Bortezomib”: O=C(NCCCNc1nc(Nc2cccc(NC(=O)N3CCCC3)c2)ncc1I)c1cccs1 [BX 795] + CC(C)C[C@H](NC(=O)[C@H](Cc1ccccc1)NC(=O)c1cnccn1)B(O)O [Bortezomib] (partner 0.002 µM)
An outline of the steps:
as §1

Compound in the assay “BX 795 + Alpelisib”: O=C(NCCCNc1nc(Nc2cccc(NC(=O)N3CCCC3)c2)ncc1I)c1cccs1 [BX 795] + Cc1nc(NC(=O)N2CCC[C@H]2C(N)=O)sc1-c1ccnc(C(C)(C)C(F)(F)F)c1 [Alpelisib] (partner 2 µM)
An outline of the steps:
as §1

Regarding LCLC-97TM1, the relative viability amounted to 0.462 with BX 795 + OSI-027 (first compound 0.04 µM); 0.604 with BX 795 + OSI-027 (first compound 0.1265 µM); 0.673 with BX 795 + OSI-027 (first compound 0.4 µM); 0.332 with BX 795 + OSI-027 (first compound 1.265 µM); 1.05 with BX 795 + Lapatinib (first compound 0.04 µM); 0.842 in the assay with BX 795 + Lapatinib (first compound 0.1265 µM). The relative viability amounted to 0.926 with BX 795 + Lapatinib (first compound 0.4 µM); 0.362 with BX 795 + Lapatinib (first compound 1.265 µM); 0.939 with BX 795 + Luminespib (first compound 0.04 µM); 0.657 with BX 795 + Luminespib (first compound 0.1265 µM); 0.774 with BX 795 + Luminespib (first compound 0.4 µM); 0.456 with BX 795 + Luminespib (first compound 1.265 µM). The relative viability in the assay with BX 795 + Bortezomib (first compound 0.04 µM) stood at 0.563; with BX 795 + Bortezomib (first compound 0.1265 µM) it was 0.527; with BX 795 + Bortezomib (first compound 0.4 µM), 0.954; with BX 795 + Bortezomib (first compound 1.265 µM) it was 0.417; with BX 795 + Alpelisib (first compound 0.04 µM), 0.236; with BX 795 + Alpelisib (first compound 0.1265 µM), 0.229. Also, the relative viability with BX 795 + Alpelisib (first compound 0.4 µM) is 0.393; with BX 795 + Alpelisib (first compound 1.265 µM) it was 0.155.

Regarding EPLC-272H, the relative viability turned out to be 0.297 in the assay with BX 795 + OSI-027 (first compound 0.04 µM); 0.291 with BX 795 + OSI-027 (first compound 0.1265 µM); 0.304 with BX 795 + OSI-027 (first compound 0.4 µM); 0.336 in the assay with BX 795 + OSI-027 (first compound 1.265 µM); 1.01 in the assay with BX 795 + Lapatinib (first compound 0.04 µM); 0.893 with BX 795 + Lapatinib (first compound 0.4 µM). For the same cell line, the relative viability came to 0.677 with BX 795 + Lapatinib (first compound 1.265 µM); 0.342 with BX 795 + Luminespib (first compound 0.04 µM); 0.187 with BX 795 + Luminespib (first compound 0.1265 µM); 0.158 in the assay with BX 795 + Luminespib (first compound 0.4 µM); 0.292 in the assay with BX 795 + Luminespib (first compound 1.265 µM); 1.02 in the assay with BX 795 + Bortezomib (first compound 0.04 µM). Also, the relative viability was 0.857 with BX 795 + Bortezomib (first compound 0.4 µM); 0.824 in the assay with BX 795 + Bortezomib (first compound 1.265 µM); 1 with BX 795 + Alpelisib (first compound 0.04 µM); 0.905 with BX 795 + Alpelisib (first compound 0.4 µM); 0.93 with BX 795 + Alpelisib (first compound 1.265 µM).

Turning to NCI-H596, the relative viability with BX 795 + OSI-027 (first compound 0.04 µM) came to 0.866; with BX 795 + OSI-027 (first compound 0.1265 µM), 0.705; with BX 795 + OSI-027 (first compound 0.4 µM), 0.664; with BX 795 + OSI-027 (first compound 1.265 µM), 0.684; with BX 795 + Lapatinib (first compound 0.04 µM) it was 1.01; in the assay with BX 795 + Lapatinib (first compound 0.1265 µM), 1.11. Moreover, the relative viability in the assay with BX 795 + Lapatinib (first compound 0.4 µM) was 1.11; with BX 795 + Lapatinib (first compound 1.265 µM), 1.15; with BX 795 + Luminespib (first compound 0.04 µM), 1.21; with BX 795 + Luminespib (first compound 0.1265 µM) it was 1; with BX 795 + Luminespib (first compound 0.4 µM) it was 1.14; with BX 795 + Luminespib (first compound 1.265 µM), 0.764. In addition, the relative viability in the assay with BX 795 + Bortezomib (first compound 0.04 µM) was 0.947; with BX 795 + Bortezomib (first compound 0.1265 µM), 0.875; with BX 795 + Bortezomib (first compound 0.4 µM), 0.999; in the assay with BX 795 + Bortezomib (first compound 1.265 µM), 1.08; in the assay with BX 795 + Alpelisib (first compound 0.04 µM) it was 0.508; in the assay with BX 795 + Alpelisib (first compound 0.1265 µM), 0.483. In addition, the values for the relative viability with BX 795 + Alpelisib (first compound 0.4 µM) and with BX 795 + Alpelisib (first compound 1.265 µM) were 0.546 and 0.363, respectively.

For LOU-NH91, the relative viability was found to be 0.794 with BX 795 + OSI-027 (first compound 0.04 µM); 0.75 in the assay with BX 795 + OSI-027 (first compound 0.1265 µM); 0.735 in the assay with BX 795 + OSI-027 (first compound 0.4 µM); 0.724 with BX 795 + OSI-027 (first compound 1.265 µM); 0.698 with BX 795 + Lapatinib (first compound 0.04 µM); 0.744 in the assay with BX 795 + Lapatinib (first compound 0.1265 µM). Further, the relative viability in the assay with BX 795 + Lapatinib (first compound 0.4 µM) worked out at 0.708; in the assay with BX 795 + Lapatinib (first compound 1.265 µM), 0.715; with BX 795 + Luminespib (first compound 0.04 µM), 0.372; with BX 795 + Luminespib (first compound 0.1265 µM), 0.3; in the assay with BX 795 + Luminespib (first compound 0.4 µM), 0.303; with BX 795 + Luminespib (first compound 1.265 µM), 0.307. Further, the relative viability with BX 795 + Bortezomib (first compound 0.04 µM) is 0.528; with BX 795 + Bortezomib (first compound 0.1265 µM) it was 0.498; with BX 795 + Bortezomib (first compound 0.4 µM), 0.562; in the assay with BX 795 + Bortezomib (first compound 1.265 µM), 0.507; with BX 795 + Alpelisib (first compound 0.04 µM), 0.695; with BX 795 + Alpelisib (first compound 0.1265 µM), 0.666. Besides, the figures for the relative viability in the assay with BX 795 + Alpelisib (first compound 0.4 µM) and with BX 795 + Alpelisib (first compound 1.265 µM) were 0.621 and 0.741, respectively.

On to LC-2-ad, for which the relative viability in the assay with BX 795 + OSI-027 (first compound 0.04 µM) turned out to be 0.841; with BX 795 + OSI-027 (first compound 0.1265 µM) it was 0.767; with BX 795 + OSI-027 (first compound 0.4 µM), 0.867; in the assay with BX 795 + OSI-027 (first compound 1.265 µM), 0.658; with BX 795 + Lapatinib (first compound 0.04 µM), 0.89; in the assay with BX 795 + Lapatinib (first compound 0.1265 µM), 0.962. Also, the relative viability with BX 795 + Lapatinib (first compound 0.4 µM) turned out to be 0.7; with BX 795 + Lapatinib (first compound 1.265 µM) it was 0.274; with BX 795 + Luminespib (first compound 0.04 µM) it was 1.16; with BX 795 + Luminespib (first compound 0.1265 µM) it was 1.03; with BX 795 + Luminespib (first compound 0.4 µM), 0.938; with BX 795 + Luminespib (first compound 1.265 µM), 0.662. Besides, the relative viability came to 1.11 with BX 795 + Bortezomib (first compound 0.04 µM); 1.01 with BX 795 + Bortezomib (first compound 0.1265 µM); 1.06 in the assay with BX 795 + Bortezomib (first compound 0.4 µM); 0.968 with BX 795 + Bortezomib (first compound 1.265 µM); 0.959 in the assay with BX 795 + Alpelisib (first compound 0.04 µM); 0.89 with BX 795 + Alpelisib (first compound 0.1265 µM). Further, the relative viability with BX 795 + Alpelisib (first compound 0.4 µM) turned out to be 0.654; with BX 795 + Alpelisib (first compound 1.265 µM) it was 0.268.

The record behind these values is the supplement of paper PMC10307832.
